{
  "source": "patent US5874235A",
  "about": "“Screening assays for cancer chemopreventative agents” (The Johns Hopkins University, priority 1997, dated 1999)",
  "assay_type_in_all_cases": "cell-based, human",
  "key": {"HCT116 cells [1]": {"test_system": "HCT116 cells", "assay": "Phosphatidylserine exposure by merocyanine staining", "conditions": "125 μM SUS, 48 hours", "method": "(§1) Phosphatidylserine exposure was assessed by merocyanine staining as previously described (31). Forty-eight hours after treatment with 125 μM SUS, 44% of HCT116 stained with merocyanine versus 4% in the vehicle-treated control cells. Likewise, 74% of SW480 cells stained with merocyanine 50 hours after treatment with 200 μM SUS versus 1.5% of the vehicle-treated control cells."}, "SW480 cells [2]": {"test_system": "SW480 cells", "assay": "Phosphatidylserine exposure by merocyanine staining", "conditions": "200 μM SUS, 50 hours", "method": "as §1"}, "SW480 cells [3]": {"test_system": "SW480 cells", "assay": "Ceramide levels, E. coli diacylglycerol (DAG) kinase assay", "method": "Cells were harvested and ceramide was quantified. The first lane of each panel corresponds to a ceramide standard (ceramide type III, Sigma). […] HCT116 and SW480 cells were treated with SUS or INDO as indicated. Ceramide levels were determined as described above. […] Control cells were treated with DMSO vehicle only. Cells were harvested at the indicated times following treatment and ceramide levels were determined as described above. The data are plotted as the mean of at least two experiments with the error bars corresponding to the standard deviation.\nCeramide levels were measured using the Escherichia coli diacylglycerol (DAG) kinase assay as previously described (30) with the following modifications. After the initial lipid extraction, phases were broken by adding 2 ml chloroform and 2 ml 1M NaCl and lipids were washed with 1M NaCl prior to drying under nitrogen (32, 33). After solubilization, samples were sonicated for 15 seconds. The DAG reaction was performed for 30 minutes at 25° C. in a 100 μl reaction volume with 3.5 μg DAG kinase (Calbiochem) and […] γ^32 P-ATP (Dupont NEN, 6000 Ci/mmol). After extraction of the labeled lipids, the lower chloroform phase was washed with 1% HCl prior to drying under nitrogen. The solvent mixture for thin layer chromatography was chloroform:acetone:methanol:acetic acid:water (10:4:3:2:1). Samples were quantitated using a Phosphorimager (Molecular Dynamics)."}, "HCT116 cells [4]": {"test_system": "HCT116 cells", "assay": "Arachidonic acid levels, release of 3H-AA into the media", "conditions": "for fold induction at 50 µM: 50 μM SUS, read-out: arachidonic acid levels relative to control; for increase in arachidonic acid: apoptosis-inducing doses of SUS", "method": "(§2) FIGS. 4A, 4B, 4C, 4D, 4E and 4F. The role of arachidonic acid in NSAID-mediated apoptosis. […] HCT116 and SW480 cells were treated with the indicated concentrations of SUS or INDO. Arachidonic acid (AA) levels were determined by measuring release of ^3 H-AA into the media as previously described (18). Data are indicated as the mean of three replicates with the error bars corresponding to the standard deviation. In addition, the nature of the released radiolabeled material was evaluated by thin layer chromatography as previously described (28). […] HCT116 and SW480 cells were incubated with ^3 H-choline chloride (0.5 mCi ml^-1, 80 Ci mmol^-1, New England Nuclear) for 48 hours. After labeling, cells were washed with HBSS (Gibco) and treated with SUS or INDO for the indicated times. Sphingomyelin measurements were performed using the bacterial sphingomyelinase method as previously described (18). Sphingomyelin levels at each time point are plotted as a percentage of that in untreated control cells. For each point, the mean of at least two independent experiments is presented with the error bars corresponding to the standard deviations. […] SW480 cells were treated with 200 μM arachidonic acid (AA), SUS (SUS) or behenic acid as a control fatty acid (FA) as indicated. […] SW480 cells were treated with suboptimal doses (100 μM) of arachidonic acid (AA), SUS (SUS), or both (AA+SUS) as indicated. After 48 hours of treatment, apoptosis and ceramide increases were assessed as described for FIGS. 1 and 3, respectively. Ceramide increases (left axis) were expressed as fold increases relative to untreated cells. Apoptosis (right axis) was expressed as percent apoptotic cells minus percent apoptotic cells in untreated cells (5.6%+/-2.4). Data are indicated as the mean of duplicates with the error bars corresponding to the standard deviation.\n(§3) Arachidonic acid is known to stimulate neutral sphingomyelinase (18), which catalyzes the conversion of sphingomyelin to ceramide. We therefore considered the possibility that inhibition of COX activity might lead to increases in arachidonic acid, the substrate for COX. To test this hypothesis, we first determined whether SUS stimulated arachidonic acid accumulation. In both SW480 and HCT 116 cells, apoptosis-inducing doses of SUS increased arachidonic acid by 2 to 3 fold at 24 hours and by approximately 5 fold at 48 hours (FIGS. 4A and 4B). The arachidonic acid increase following SUS treatment was as great as that following treatment with mellitin, a known activator of phospholipase A2. Arachidonic acid levels in HCT116 cells increased 3.5 fold one hour after treatment with 1 μM mellitin. Likewise, arachidonic acid levels increased 2.9 fold in SW480 cells one hour after mellitin treatment. Arachidonic acid (AA) levels were determined by measuring release of ^3 H-AA into the media as previously described (18). The nature of released radiolabeled material was evaluated by thin layer chromatography analysis as previously described (28)."}, "SW480 cells [5]": {"test_system": "SW480 cells", "assay": "cells", "conditions": "for increase in arachidonic acid: apoptosis-inducing doses of SUS", "method": "as §2, §3"}, "[6]": {"test_system": "neutral sphingomyelinase in HCT116 cell lysates", "assay": "Neutral sphingomyelinase activity in lysates of treated cells (14C-sphingomyelin hydrolysis)", "conditions": "for neutral sphingomyelinase activity relative to untreated controls: 200 μM SUS", "method": "(§4) To test whether the increased ceramide was associated with evidence of augmented sphingomyelinase activity, we measured total sphingomyelin levels after SUS treatment. […] We also measured neutral sphingomyelinase activity in lysates from the treated cells and no differences were found. Neutral sphingomyelinase activity was assayed as described (18). After cell lysis, protein concentrations were determined using the Bradford method (Bio-Rad) and […] cellular protein was used in each assay. Neutral sphingomyelinase activity was determined by measuring the rate of hydrolysis of ^14 C-labelled sphingomyelin (Amersham). SW480 and HCT116 cell lines were treated with SUS (50, 200, and 600 μM) for 6 to 24 hours."}, "[7]": {"test_system": "neutral sphingomyelinase in SW480 cell lysates", "assay": "Neutral sphingomyelinase activity in lysates of treated cells (14C-sphingomyelin hydrolysis)", "conditions": "SUS 50, 200 and 600 μM, 6 to 24 hours", "method": "as §4"}},
  "note": "Like-named read-outs stand apart in the source and are kept apart here.",
  "data": [
    {"compound": "CSc1ccc(/C=C2/C(C)=C(CC(=O)O)c3cc(F)ccc32)cc1", "note": "[SUS, sulindac sulfide]", "values": [
      {"measurement": "cells stained with merocyanine", "setting": "HCT116 cells [1]", "result": 44, "unit": "%"},
      {"measurement": "cells stained with merocyanine", "setting": "SW480 cells [2]", "result": 74, "unit": "%"},
      {"measurement": "ceramide levels early after treatment", "setting": "SW480 cells [3]; 8 hours post-treatment, before morphologic features of apoptosis", "result": "increased to substantial levels"},
      {"measurement": "fold induction at 200 µM", "setting": "SW480 cells [3]; Homo sapiens, SW480, SUS 200 μM, with or without 10 μM CHX, 48 hours, read-out: fold increase in ceramide levels relative to vehicle controls", "result": "9.2 ± 0.1"},
      {"measurement": "magnitude of the ceramide increase", "setting": "SW480 cells [3]; SUS", "result": 10, "unit": "fold"},
      {"measurement": "ceramide induction", "setting": "SW480 cells [3]; SUS 50 μM", "result": "did not induce ceramide"},
      {"measurement": "ceramide induction", "setting": "SW480 cells [3]; SUS 100 μM", "result": "not at 100 μM"},
      {"measurement": "ceramide induction", "setting": "SW480 cells [3]; SUS 200 μM", "result": "induced both ceramide and cell death"},
      {"measurement": "time of maximum ceramide induction", "setting": "SW480 cells [3]; SUS 200 μM", "result": "24 to 48", "unit": "h"},
      {"measurement": "effect on ceramide levels", "setting": "SW480 cells [3]; suboptimal doses, 100 μM each, separately or together, 48 hours", "result": "little effect on ceramide levels"},
      {"measurement": "fold induction at 50 µM", "setting": "HCT116 cells [4]; Homo sapiens, HCT-116, 8 hours", "result": 0.9},
      {"measurement": "fold induction at 50 µM", "setting": "HCT116 cells [4]; Homo sapiens, HCT-116, 16 hours", "result": 1.05},
      {"measurement": "fold induction at 50 µM", "setting": "HCT116 cells [4]; Homo sapiens, HCT-116, 24 hours", "result": 1.14},
      {"measurement": "fold induction at 200 µM", "setting": "HCT116 cells [4]; Homo sapiens, HCT-116, 200 μM SUS, 16 hours, read-out: increase in arachidonic acid", "result": 5.1},
      {"measurement": "increase in arachidonic acid", "setting": "HCT116 cells [4]; 24 hours", "result": "2 to 3", "unit": "fold"},
      {"measurement": "increase in arachidonic acid", "setting": "HCT116 cells [4]; 48 hours", "result": "approximately 5 fold"},
      {"measurement": "fold induction at 200 µM", "setting": "SW480 cells [5]; Homo sapiens, SW480, 200 μM SUS, 16 hours, read-out: increase in arachidonic acid", "result": 3.4},
      {"measurement": "increase in arachidonic acid", "setting": "SW480 cells [5]; 24 hours", "result": "2 to 3", "unit": "fold"},
      {"measurement": "increase in arachidonic acid", "setting": "SW480 cells [5]; 48 hours", "result": "approximately 5 fold"},
      {"measurement": "neutral sphingomyelinase activity relative to untreated controls", "setting": "[6]; 6 hours", "result": 90, "unit": "%"},
      {"measurement": "neutral sphingomyelinase activity relative to untreated controls", "setting": "[6]; 16 hours", "result": 92, "unit": "%"},
      {"measurement": "neutral sphingomyelinase activity in cell lysates", "setting": "[6]; SUS 50, 200 and 600 μM, 6 to 24 hours", "result": "None of these treatments enhanced neutral sphingomyelinase activity"},
      {"measurement": "neutral sphingomyelinase activity in cell lysates", "setting": "[7]", "result": "None of these treatments enhanced neutral sphingomyelinase activity"}
    ]}
  ]
}
